In this data set the test system is mouse carcinogenicity bioassay, TD50 from CPDB. Kind of data set: DSSTox (CPDBAS) Carcinogenic Potency Database Summary Mouse Bioassay Results. Conditions: for outcome: TD50_Mouse_Note: no positive results. Put shortly: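 Chronic long-term mouse cancer bioassays from literature and NCI/NTP, compiled per sex. TD50 is the standardized carcinogenic potency, using the most positive experiment per sex-species; target sites follow author opinion.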

[1] abbreviates: TargetSites_Mouse_Female: no positive results.
The mark [2] stands for this setting: TD50_Mouse_Note: TD50 is harmonic mean of more than one positive test, TargetSites_Mouse_Female: lung, vascular system.
Where [3] appears, read: TD50_Mouse_Note: TD50 is harmonic mean of more than one positive test, TargetSites_Mouse_Female: liver.

Among the data in PubChem BioAssay AID1199 (EPA DSSTox, 2008) are outcome and Potency values, retold here.

Activity calls are given as the source filed them.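 Rule for the calls: active = a tumour-causing dose and a tumour site recorded for mice in at least one sex group; inconclusive = only government mouse studies exist and were judged inadequate; inactive = mouse studies exist but none gave tumours.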

As for `O=C/C(Cl)=C(/Cl)C(=O)O`, the outcome under setting [1] was “inactive; no positive results”.
Regarding `NNC(N)=S`, the outcome under setting [1] was “inactive; no positive results”.
With `O=C1CCC(=O)O1`, under setting [1], the outcome is “inactive; no positive results”.
Regarding `CN(C)NC(=O)CCC(=O)O`, under setting [2], the Potency was 6.43 mmol/kg/day.
With `CC(O)CN(C)c1ccc(NN)nn1` (stereo unspecified), the outcome under setting [1] is “inactive; no positive results”.
Same read-out and setting: next, `CCN(Cc1cccc(S(=O)(=O)O)c1)c1ccc(C(=C2C=CC(=[N+](CC)Cc3cccc(S(=O)(=O)O)c3)C=C2)c2ccccc2S(=O)(=O)[O-])cc1`: “inactive; no positive results”.
As to `COc1cc(N)ccc1N=Nc1ccccc1`, the outcome under setting [1] is “inactive; no positive results”.
Turning to `NNC(=O)c1ccncc1`, where the note is “TD50_Mouse_Note: TD50 is harmonic mean of more than one positive test, greater than ten-fold variation among TD50 values for positive res, TargetSites_Mouse_Female: liver, lung, TargetSites_Mouse_BothSexes: mammary gland”, the Potency is 0.198 mmol/kg/day.
With `CC(C)C(C(=O)OC(C#N)c1cccc(Oc2ccccc2)c1)c1ccc(Cl)cc1` (stereo unspecified), the outcome under setting [1] is “inactive; no positive results”.
`Nc1ccc(O)c([N+](=O)[O-])c1`: the outcome under setting [1] is “inactive; no positive results”.
Consider `CN1C(=O)C(O)N=C(c2ccccc2)c2cc(Cl)ccc21` (stereo unspecified), for which the outcome under setting [1] is “inactive; no positive results”.
As to `COP(=O)(OC)OC`, the Potency (TargetSites_Mouse_Female: uterus) was 2.39 mmol/kg/day.
For the compound `O=P1(NCCCl)OCCCN1CCCl` (stereo unspecified), where the note is “TD50_Mouse_Note: positive test results only by intraperitoneal or intravenous injection, TargetSites_Mouse_Female: hematopoietic system”, the Potency is 0.0194 mmol/kg/day.
`ClC(Cl)(Cl)c1ccccc1`: the Potency (TargetSites_Mouse_Female: hematopoietic system, lung, stomach) is 0.00203 mmol/kg/day.
`CCCCC(CC)COC(=O)c1ccccc1C(=O)OCC(CC)CCCC` (stereo unspecified): the Potency under setting [3] was 1.79 mmol/kg/day.
`Nc1ccc2c(n1)[nH]c1ccccc12`: where the note is “TD50_Mouse_Note: TD50 is harmonic mean of more than one positive test, TargetSites_Mouse_Female: liver, vascular system”, the Potency was 0.272 mmol/kg/day.
On to `Nc1c(Cl)cc([N+](=O)[O-])cc1Cl`, for which the outcome under setting [1] was “inactive; no positive results”.
On to `CCCC/C=N/N(C)C=O`, for which the Potency (TD50_Mouse_Note: TD50 is harmonic mean of more than one positive test, TargetSites_Mouse_Female: liver, lung) is 0.0241 mmol/kg/day.
On to `NC(=S)Nc1ccccc1`, for which the outcome under setting [1] was “inactive; no positive results”.
Take `NNC(N)=O`: the Potency under setting [2] is 2 mmol/kg/day.
For `CC1(C)S[C@@H]2[C@H](NC(=O)[C@H](N)c3ccccc3)C(=O)N2[C@H]1C(=O)O`, under setting [1], the outcome was “inactive; no positive results”.
Still for that read-out and setting: to `Cc1ccccc1` belongs “inactive; no positive results”; to `CCN(CC)C(=S)[S-].CCN(CC)C(=S)[S-].[Cd+2]`, “inactive; no positive results”; to `O=C1O[C@H]([C@@H](O)CO)C(O)=C1O`, “inactive; no positive results”.
The same measure, in the same setting: next, `O.O.O.O.O=C([O-])CC(O)(CC(=O)[O-])C(=O)[O-].[Fe+3]`: “inactive; no positive results”.
For `c1ccc2ccccc2c1`, where the note is “TargetSites_Mouse_Female: lung”, the Potency is 1.27 mmol/kg/day.
In the case of `O=[N+]([O-])c1ccc(Oc2ccc(Cl)cc2Cl)cc1`, the Potency under setting [3] was 0.405 mmol/kg/day.
Turning to `C=CC(O)c1ccc2c(c1)OCO2` (stereo unspecified), under setting [3], the Potency is 0.4 mmol/kg/day.
Consider `O=c1c(CO)c/c(=N/Nc2ccc(S(=O)(=O)O)c3ccccc23)c(=O)/c1=N/Nc1ccc(S(=O)(=O)O)c2ccccc12`, for which the outcome under setting [1] was “inactive; no positive results”.
Take `COc1c(Cl)c(Cl)c(Cl)c(Cl)c1Cl`: under setting [1], the Potency is 0.243 mmol/kg/day.
For `S=C([S-])NCCNC(=S)[S-].[Mn+2]`, the outcome under setting [1] is “inactive; no positive results”.
The same measure, in the same setting: to `Nc1ccc(N)c2c1C(=O)c1c(N)ccc(N)c1C2=O` belongs “inactive; no positive results”.
On to `C/C=C/Cl`, for which, under “TargetSites_Mouse_Female: stomach”, the Potency was 0.066 mmol/kg/day.
Turning to `Nc1cccc(N)c1`, under setting [1], the outcome is “inactive; no positive results”.
Still for that read-out and setting: next, `CCOP(=O)(CC1CO1)OCC` (stereo unspecified): “inactive”; `C=C(C)C(=O)Nc1ccc(Cl)c(Cl)c1`: “inactive; no positive results”.
As for `C=CCOc1ccccc1OCC(O)CNC(C)C` (stereo unspecified), the outcome under setting [1] was “inactive; no positive results”.
For `C/C=C/c1ccc2c(c1)OCO2`, the outcome under setting [1] was “inactive; no positive results”.
On to `CCN(CC)CCOc1ccc(/C(=C(\Cl)c2ccccc2)c2ccccc2)cc1`, for which the outcome under setting [1] was inactive.
Consider `CCNC(=S)NCC`, for which the outcome under setting [1] was “inactive; no positive results”.
Regarding `CC[C@H](OC(C)=O)C(C[C@H](C)N(C)C)(c1ccccc1)c1ccccc1`, the outcome under setting [1] is “inactive; no positive results”.
